Assays:
[1] = Percentage of encapsulation in bolaamphiphile vesicles; format: physicochemical
mice = test: Hot plate test (analgesic effect) in mice; format: in vivo; conditions: for response time: nanoparticles by ethanol injection, encapsulated groups pre-injected with pyridostigmine 0.5 mg/kg; for analgesic effect: i.v. 20 mg/Kg
Protocol: The response of mice to a transient painful stimulus was measured following administration of the test material (either i.v. into the tail vein or per os by gavages). The analgesic effect was determined by placing the mouse on a hot plate (55° C., IITC model 39) and recording the time for withdrawing/licking the hind limb (hot plate test). To prevent tissue damage and suffering of the animal, the experiment was terminated after 20 sec if no response was evoked. The response latencies were recorded and either used by themselves for comparison or normalized as percent of maximal possible effect (MPE) using the equation: […]
where: RT—is the response latency after treatment; RT0—is the response latency of a mouse without treatment and RTmax—is the maximal response time allowed (20 sec).
Derivative 4-nanoparticles comprising leu-enkephalin, prepared as described in Example 9 by FHS (film hydration flowed by sonication), were administered to mice and their ability to exert an analgesic effect was measured by the hot plate test described in Methods.
Nanoparticles were made from 10 mg/ml Derivative 4 with cholesterol and cholesteryl hemisuccinate as additives (2:1:1) and 10% molar ratio chitosan (CS)-vernolic acid conjugate in presence of 2.5 mg/ml leu-enkephalin. In these nanoparticles, CS-vernolic acid conjugate serves as a pendant on the nanoparticles/vesicles in order to enhance penetrability.
Nanoparticles were injected into the tail vein at a dose of 20 mg/kg bolaamphiphile, which corresponds to 5 mg/kg leu-enkephaime. Empty nanoparticles and free leu-enkephalin injected in a dose of 20 mg/kg, were used as a negative control and morphine at a dose of 5 mg/kg was used as a positive control. Mice were pretreated with 0.5 mg/kg pyridostigmine 15 min prior to the injection of the nanoparticles. Pyridostigmine inhibits the activity of acetylcholine esterase and thus prevents hydrolysis of the acetyl choline headgroups in the periphery.
Analgesic effect studies (hot plate test) in mice were carried out using nanoparticles comprising Derivative 1 or Derivative 4 and prepare by the ethanol injection technique described in Example 10. The hot plate test was preformed as described in Example 19. All mice treated with encapsulated leu-enkephalin, were pre-injected with the periphery acetylcholine esterase inhibitor pyridostigmine (0.5 mg/kg).
The efficacy of delivering leu-enkephalin in various nanoparticles in oral formulations versus i.v. injectable formulations were tested (a hot plate test of Example 20). Thus, formulations comprising leu-enkephalin encapsulated in the following nanoparticles were prepared: (a) nanoparticles comprising Derivative 4, cholesterol, cholesteryl hemisuccinate and vernolyl-chitosan prepared according to Example 13(i); (b) nanoparticles comprising distearyl phosphatidyl choline (DSPC) as the amphiphilic compound, cholesterol, prepared as described in Example 13(iii).
Formulations comprising […] leu-enkephalin loaded nanoparticles were administered by gavages at a dose of 100 mg/kg bolaamphiphile, which corresponds to 25 mg/kg leu-enkephalin. The same dose of free leu-enkephalin was administered by gavages as a control. The results were compared to liposomes made from 20 mg/ml DSPC in presence of 5 mg/ml leu-enkephalin and administered at a dose of 200 mg/kg phospholipid, which corresponds to 50 mg/kg leu-enkephalin. The mice were preinjected with pyridostigmine as in example 20. The results, are shown in FIG. 2, represent the analgesic effect as percent of maximal possible response (MPE).
In order to assess an optimized delivery and targeted release efficiencies, the analgesic effect of formulations containing nanoparticles comprising Derivative 4, cholesterol, cholesteryl hemisuccinate and vernoyl chitosan as additives (chitosan nanoparticles), and various amounts of leu-enkephalin was studied by the hot plate test. Nanoparticles were prepared as described in Example 15. […]

For 5(6)-Carboxyfluorescein [CF], the “percentage of CF encapsulation” value ([1]; Derivative 4/cholesterol/cholesteryl hemisuccinate/PEG(201) or PEG(202) 100:25:25:10 nanoparticles, PBS pH 8.0) was 20%.
With “[5-Leucine] Enkephalin [free leu-enkephalin]” the response time (mice; 10 minutes after i.v. injection) was 3 s, the response time (mice; 30 minutes after i.v. injection) was 2 s and the response time (mice; 60 minutes after i.v. injection) was 2 s. For the same compound, the analgesic effect (mice; mice pretreated with pyridostigmine, Example 27) was “no significant analgesic effect”, the analgesic effect (mice; Example 28) was “no significant analgesic effect” and the “percentage of encapsulation at pH above pI relative to pH below pI” value ([1]; Derivative 4/cholesterol/cholesteryl hemisuccinate nanoparticles, TBS pH 8.5) was 2 to 4 times.
For `CN(C)C(=O)Oc1ccc[n+](C)c1.[Br-]` [pyridostigmine, 3-(Dimethylamino-carbonyloxy)-1-methylpyridinium bromide], the “analgesic response of pyridostigmine by itself” value (mice; 0.5 mg/kg) was “does not evoke an analgesic response”.
